In patent publication US20240277689A1, “METHOD OF TREATING AN AUTOIMMUNE HEMATOLOGICAL DISORDER” (Novartis AG, priority 2021, published 2024):

Tests used:
AP activity (Wieslab) = assay: First in human (FIH) studies: suppression of AP activity (Wieslab); format: in vivo
Experimental: In the FIH studies, there was rapid suppression of the AP activity (Wieslab) with approximately 80% or greater inhibition achieved at two hours post-dose for participants receiving single dose of 200 mg iptacopan. The suppression of the AP (80% or greater inhibition) was sustained over 14 days of dosing at 200 mg b.i.d. The exposure-response model developed with data from the FIH study with iptacopan in healthy volunteers predicts that a dose of about 200 mg b.i.d. would be needed to achieve >90% inhibition of the AP (Wieslab assay) in most participants. Preclinical studies supported acceptable safety margins for human exposure following 200 mg b.i.d. dosing.
Given the observed PK/PD profile in a first in human study in healthy volunteers, a 200 mg b.i.d dose of iptacopan is selected for this study.

[1] = system: complement alternative pathway; conditions: multiple in vitro and in vivo non-clinical mechanistic studies; cited from earlier work

## CCO[C@H]1CCN(Cc2c(OC)cc(C)c3[nH]ccc23)[C@H](c2ccc(C(=O)O)cc2)C1 [iptacopan, 4-((2S,4S)-(4-ethoxy-1-((5-methoxy-7-methyl-1H-indol-4-yl)methyl)piperidin-2-yl))benzoic acid]
AP activity (Wieslab); over 14 days of dosing at 200 mg b.i.d.
  suppression of the AP (inhibition), sustained: ≥ 80%
AP activity (Wieslab); two hours post-dose, single dose of 200 mg, FIH participants
  inhibition of AP activity (Wieslab): ≥ 80%
[1]
  inhibition of the complement alternative pathway: demonstrated inhibition of the complement alternative pathway
